{"source": "patent US20260273028A1", "about": "“PEROXIDASE COMPOSITIONS CONTAINING IMPROVED ENHANCING AGENTS” (FLEN HEALTH PHARMA NV, priority 2022, published 2026)", "test_system": "S. aureus (ATCC®6538™)", "assay": "Microbial challenge testing in alginogel with GOX+EPO", "format": "cell-based", "conditions": "isoleucine 0.0025% (w/w)", "procedure": "In a further experiment, the efficacy of antimicrobial activity enhancement by isoleucine of the GOX combination with eosinophil peroxidase (EPO) was evaluated. In view hereof, a test was set up as described in the section on ‘challenge testing’ described above with the difference that EPO was used instead of LPO.\nIn brief, microbial challenge testing was performed according to the method described in the European Pharmacopoeia current version chapter 5.1.3 ‘Efficacy of antimicrobial preservation’, but with adapted time points (0, 10, 20, 30, 40, 50, 60, 70 and 80 min instead of 0, 2, 7, 14 and 28 days). […] After preparation, a homogenous sample of 10 g was transferred into a 50 ml conical tube for each alginogel to be evaluated. […] Then, the 50 ml conical tubes containing the alginogel samples to be evaluated were inoculated with 100 μl of the designated inoculum and incubated at 25° C. for 80 minutes. At the start (time point 0) and after 0, 10, 20, 30, 40, 50, 60, 70 and 80 min, the number of viable microorganisms per gram product (expressed as CFU/g) was determined by transferring a sample of 0.5 g of the product into a 15 ml conical tube containing 4.5 ml of sterile diluent and applying general dilution and plate count techniques. For each combination evaluated, the absolute counts (expressed as log(CFU/g)) at each timepoint were visualized in a graph. […]", "data": [{"compound": "CC[C@H](C)[C@H](N)C(=O)O", "note": "[Isoleucine, isoleucine]", "values": [{"measurement": "time to complete reduction of absolute S. aureus counts", "result": 80, "unit": "min"}]}]}
